Experimental data: ChEMBL document CHEMBL5724914, “Linking interpersonal differences in gut microbiota composition and drug biotransformation activity” (2024)

Tests used:
[1] = (§1) The drug is tested on Z-028 corresponding to mouse gut metagenome with ENA study accession number: PRJEB37062 and ENA sample accession number: ERS12561827 for biotransformation under anaerobic condition. The drug concentrations were measured over 9 timepoints collected between 0 and 24 hours of incubation by liquid-chromatography-coupled mass spectrometry (LC–MS); details: 2 µM
[2] = as §1, with “Z-025” for “Z-028”, “rabbit” for “mouse”, “ERS12561824” for “ERS12561827”; details: 2 µM
[3] = as §1, with “Z-022” for “Z-028”, “ERS12561821” for “ERS12561827”; details: 2 µM
[4] = as §1, with “Z-013” for “Z-028”, “rabbit” for “mouse”, “ERS12561813” for “ERS12561827”; details: 2 µM
[5] = as §1, with “Z-011” for “Z-028”, “ERS12561811” for “ERS12561827”; details: 2 µM
[6] = as §1, with “WLS-370” for “Z-028”, “human” for “mouse”, “ERS12561793” for “ERS12561827”; details: 2 µM
[7] = as §1, with “WLS-086” for “Z-028”, “human” for “mouse”, “ERS12561752” for “ERS12561827”; details: 2 µM
[8] = as §1, with “WLS-027” for “Z-028”, “human” for “mouse”, “ERS12561744” for “ERS12561827”; details: 2 µM
[9] = human gut metagenome, 24 h, 2 µM
Note: call rule not given here.

| SMILES | Bacterial Biotransformation [1] | Bacterial Biotransformation [2] | Bacterial Biotransformation [3] | Bacterial Biotransformation [4] | Bacterial Biotransformation [5] | Bacterial Biotransformation [6] | Bacterial Biotransformation [7] | Bacterial Biotransformation [8] | Bacterial Biotransformation [9] |
| --- | --- | --- | --- | --- | --- | --- | --- | --- | --- |
| COC(=O)Nc1nc2ccc(C(=O)c3ccccc3)cc2[nH]1 [MEBENDAZOLE] | Compound NOT metabolized | Compound metabolized | Compound metabolized | Compound metabolized | Compound metabolized | Compound metabolized | Compound metabolized | Compound metabolized | Compound NOT metabolized |
| CC(C)(C(=O)O)c1ccc(C(O)CCCN2CCC(C(O)(c3ccccc3)c3ccccc3)CC2)cc1 (stereo not given) [FEXOFENADINE] | Compound NOT metabolized | Compound NOT metabolized | Compound NOT metabolized | Compound NOT metabolized | Compound NOT metabolized | Compound NOT metabolized | Compound NOT metabolized | Compound NOT metabolized | Compound NOT metabolized |
| COc1ccc(CCN(C)CCCC(C#N)(c2ccc(OC)c(OC)c2)C(C)C)cc1OC (stereo not given) | Compound metabolized | Compound NOT metabolized | Compound NOT metabolized | Compound NOT metabolized | Compound NOT metabolized | Compound metabolized | Compound metabolized | Compound metabolized | Compound metabolized |
| CC(O)(CS(=O)(=O)c1ccc(F)cc1)C(=O)Nc1ccc(C#N)c(C(F)(F)F)c1 (stereo not given) [BICALUTAMIDE] | Compound NOT metabolized | Compound NOT metabolized | Compound NOT metabolized | Compound NOT metabolized | Compound NOT metabolized | Compound NOT metabolized | Compound NOT metabolized | Compound NOT metabolized | Compound NOT metabolized |
| COc1ccc2c(c1OC)C(=O)O[C@@H]2[C@H]1c2c(cc3c(c2OC)OCO3)CCN1C [NOSCAPINE] | Compound NOT metabolized | Compound NOT metabolized | Compound metabolized | Compound NOT metabolized | Compound metabolized | Compound NOT metabolized | Compound metabolized | Compound NOT metabolized | Compound metabolized |
| Nc1nc2ccc(OC(F)(F)F)cc2s1 [RILUZOLE] | Compound NOT metabolized | Compound NOT metabolized | Compound metabolized | Compound NOT metabolized | Compound metabolized | Compound metabolized | Compound metabolized | Compound metabolized | Compound NOT metabolized |
| CCCc1nc2c(C)cc(-c3nc4ccccc4n3C)cc2n1Cc1ccc(-c2ccccc2C(=O)O)cc1 | Compound metabolized | Compound metabolized | Compound metabolized | Compound metabolized | Compound metabolized | Compound metabolized | Compound metabolized | Compound metabolized | Compound metabolized |
| CC(C)NCC(O)c1ccc(NS(C)(=O)=O)cc1 (stereo not given) [SOTALOL] | Compound NOT metabolized | Compound NOT metabolized | Compound NOT metabolized | Compound NOT metabolized | Compound NOT metabolized | Compound NOT metabolized | Compound NOT metabolized | Compound NOT metabolized | Compound NOT metabolized |
| Cc1ccccc1N1C(=O)c2cc(S(N)(=O)=O)c(Cl)cc2NC1C (stereo not given) [METOLAZONE] | Compound NOT metabolized | Compound metabolized | Compound NOT metabolized | Compound NOT metabolized | Compound NOT metabolized | Compound NOT metabolized | Compound metabolized | Compound NOT metabolized | Compound NOT metabolized |
| NC(=O)N1c2ccccc2CC(=O)c2ccccc21 [OXCARBAZEPINE] | Compound NOT metabolized | Compound NOT metabolized | Compound metabolized | Compound NOT metabolized | Compound NOT metabolized | Compound metabolized | Compound NOT metabolized | Compound NOT metabolized | Compound NOT metabolized |
| COc1c(C)c2c(c(O)c1C/C=C(\C)CCC(=O)OCCN1CCOCC1)C(=O)OC2 [MYCOPHENOLATE MOFETIL] | Compound metabolized | Compound metabolized | Compound metabolized | Compound metabolized | Compound metabolized | Compound metabolized | Compound metabolized | Compound metabolized | Compound metabolized |
| CC(C)c1nc(CN(C)C(=O)N[C@H](C(=O)N[C@@H](Cc2ccccc2)C[C@H](O)[C@H](Cc2ccccc2)NC(=O)OCc2cncs2)C(C)C)cs1 [RITONAVIR] | Compound metabolized | Compound metabolized | Compound NOT metabolized | Compound metabolized | Compound metabolized | Compound metabolized | Compound metabolized | Compound metabolized | Compound NOT metabolized |
| CCc1nn(CCCN2CCN(c3cccc(Cl)c3)CC2)c(=O)n1CCOc1ccccc1 [NEFAZODONE] | Compound NOT metabolized | Compound NOT metabolized | Compound NOT metabolized | Compound NOT metabolized | Compound NOT metabolized | Compound NOT metabolized | Compound metabolized | Compound metabolized | Compound NOT metabolized |
| CC(C)NCC(O)COc1ccc(CCOCC2CC2)cc1 (stereo not given) [BETAXOLOL] | Compound NOT metabolized | Compound metabolized | Compound NOT metabolized | Compound NOT metabolized | Compound NOT metabolized | Compound NOT metabolized | Compound metabolized | Compound NOT metabolized | Compound NOT metabolized |
| N#Cc1ccc(C(c2ccc(C#N)cc2)n2cncn2)cc1 [LETROZOLE] | Compound NOT metabolized | Compound NOT metabolized | Compound metabolized | Compound NOT metabolized | Compound NOT metabolized | Compound NOT metabolized | Compound NOT metabolized | Compound NOT metabolized | Compound NOT metabolized |
